Earlier results on one compound are cited in patent US5908840A, “Hetero-biaryl-pyridoquinazolinone derivatives as anti-cancer agents” (American Cyanamid Company, priority 1997, dated 1999).

The conditions of data set [1]: Denny et al.; Ebeid et al.
The conditions of data set [2]: Denny et al., Mutation Research 232: 233 (1990).
A further data set deals with P388. The settings on record: Denny et al., Mutation Research 232: 233 (1990).

Consider `CN(C)CCNC(=O)c1cccn2c(=O)c3ccccc3nc12` [I, N-[2-(dimethylamino)ethyl]-11-oxo-11H-pyrido[2,1-b]quinalzoline-6-carboxamide], for which the in vitro activity entry in data set [1] is “some in vitro activity”. For the same compound, in data set [2], the mutagenic activity entry is “mutagenic activity”. Further, the “activity in a P388 mouse model” value in the data set on P388 was “inactive”.
